“Also recorded” adds a separate entry of the source. Read-outs that look alike come from different tables or passages of the source.
Experiments:
TNBS-induced colitis = type: in vivo, mice; settings: for effect on CD-like colitis (overall statement): mouse IBD model, acute/chronic not specified; for disease activity (DAI), acute TNBS-colitis: mouse, in vivo
Description: C57BL/6. Mice were pretreated either with PBS (control), or nicotine, PNU (α7 agonist), or MLA drug by peritoneal injection once daily for five days. Mice were then induced to develop colitis for seven days with either TNBS (in 50% ethanol) or 50% ethanol alone as a control. Disease activity of all mice was monitored daily.
(§1) For CD-like mouse model, BALB/c mice were used for the induction of DSS colitis. For CD-like mouse model, BALB/c mice were used for the induction of TNBS-colitis. C57/B6 or BALB/c mice, 6-8 weeks old, were pretreated (daily peritoneal injection) for one week with either nicotine (a non-specific ligand of nAChRα7; 6 mg/kg) or a nAChRα7-specific agonist (PNU; 8.3 mg/kg). Controls were mice without the pre-treatments (a total of >10 mice in each treatment group). The mice were then induced to develop either CD-like colitis with TNBS (600 μg) or UC-like colitis with DSS (2.5%).

DSS-induced colitis = type: in vivo, mice; settings: for effect on UC-like colitis (overall statement): mouse IBD model, acute/chronic not specified
Method: (§2) In an acute model, mice were treated with or without nAChRα7 agonist drug for five days. DSS were then given for seven days. Clinical activity scores were assessed. In a chronic model, mice were given DSS for seven days followed by seven days water. These DSS-water cycles were repeated three more times continuously. […] At this point, nAChRα7 agonist was given in one set of mice and all mice were followed for eleven days. […] The arrow indicates the start (day 53) of nAChRα7 agonist treatment in the chronic model;
as §1

chronic DSS colitis = test: Chronic UC-like DSS colitis, therapeutic treatment; type: in vivo, mice; settings: four DSS-water cycles, treatment from day 53, followed eleven days
Method: as §2
Induction of chronic UC-like colitis was described in the legends of FIG. 6.

[1] = tested on: chronic TNBS-induced colitis; type: in vivo, mice
[2] = tested on: DSS-induced colitis of nAChRα7 deficient mice; settings: mouse, in vivo
Method: (§3) Wild type (WT) nAChRα7 deficient (nAChRα7 knockout; α7KO) mice, both in C57B/6 background, were induced to develop colitis, either with DSS (A) or TNBS (B). […] N≧6 per group;
(§4) To exclude this possibility, nAChRα7 agonist and antagonist were tested on nAChRα7-knockout mice (nAChRα7-KO), in which development of chemically-induced colitis will not be affected by the agents if they are only specific to nAChRα7.

[3] = tested on: TNBS-induced colitis of nAChRα7 deficient mice; settings: mouse, in vivo
Method: as §3, §4

[4] = tested on: Gpx1/2-double knockout (DKO) mice ileocolitis; test: GPX 1/2 DKO colitis; type: in vivo; settings: administered once signs of colitis were evident
Method: Clinical activity scores were assessed.
Once signs of colitis were immediately evident, both nAChRα7 agonists and nAChRα7 antagonists were administered to Gpx1/2-DKO mice.

[5] = at the dose used in the preclinical studies
Description: (§5) Other studies of these nAChRα7-specific drugs, including toxicity and pharmacokinetics, are being investigated.

[6] = tested on: mouse behavior (immobility); settings: DSS-induced colitis mice, IP agonist
Method: Tests were carried out on mice forced to swim in a cylindrical container for six minutes. Mice were divided into four groups: (a) control; (b) mice receiving IP agonist; (c) mice induced with DSS; and (d) mice receiving IP agonist and induced with DSS (n=6 in each group). The total duration of immobility in a container with 13 cm of water at 25° C. was scored. Immobility was defined when the mouse stopped struggling and remained floating motionless in the water, making only those movements necessary to keep its head above water. Day 0 and Day 7 indicate the days of DSS treatment.
as §5

[7] = tested on: Immortalized (EBV-transformed) B lymphocytes of patients with UC, CD, and unaffected controls
Ulcerative colitis (UC) = settings: human, in vivo; cited from earlier work
[8] = treatment of established chronic colitis

Structure (SMILES) | effect on CD-like colitis (overall statement) (TNBS-induced colitis) | effect on UC-like colitis (overall statement) (DSS-induced colitis) | disease activity (DAI), acute DSS-colitis (DSS-induced colitis; mouse, in vivo) | disease activity (clinical activity score), chronic DSS colitis (chronic DSS colitis) | disease activity (DAI), acute TNBS-colitis (TNBS-induced colitis) | disease activity (DAI), chronic TNBS-colitis [1, 8] | potency compared with nicotine in preventing DSS-induced UC-like colitis (DSS-induced colitis; mouse, in vivo) | therapeutic effect on DSS-induced colitis in nAChRα7KO mice [2] | therapeutic effect on TNBS-induced colitis in nAChRα7KO mice [3] | colitis clinical activity score, GPX 1/2 DKO mice [4] | adverse effect on mice [5] | appearance of major organs (heart, kidney, liver, small and large intestines, spleen) [5] | immobility of DSS-mice in forced swim test [6] | disease activity (DAI), chronic TNBS-colitis ([1]; mouse, in vivo) | anti-inflammatory cytokine IL-10 production [7] | cytokine/chemokine changes, agent by itself [7] | production of proinflammatory cytokine/chemokine IL-8 and MIP-1 [7] | clinical efficacy in UC (Ulcerative colitis (UC))
COc1ccc(/C=C2\CCCN=C2c2cccnc2)c(OC)c1 [GTS-21, 3-(2,4-dimethoxybenzylidene) anabaseine] | worsened CD-like colitis | highly effective therapeutics for UC-like colitis | similarly effect of preventing development; also recorded: preventing DSS-induced colitis | effectively reverse the disease course | – | – | – | – | – | – | – | – | – | – | – | – | – | –
CCN1C[C@]2(COC(=O)c3ccccc3N3C(=O)C[C@H](C)C3=O)CC[C@H](OC)[C@@]34[C@@H]5C[C@H]6[C@H](OC)[C@@H]5[C@](O)(C[C@@H]6OC)[C@@](O)([C@@H](OC)[C@H]23)[C@@H]14 [MLA, methyllycaconitine] | highly effective therapeutic agent for CD-like colitis | has no effect on UC-like colitis | – | – | efficiently prevent; also recorded: preventing acute TNBS-colitis; also recorded: essentially disappeared; also recorded: effectively prevent | highly therapeutic effect; also recorded: effectively reverses the disease course | – | – | – | – | – | – | – | – | – | – | – | –
O=C(N[C@H]1CN2CCC1CC2)c1ccc(Cl)cc1 [PNU, N-[(3R)-1-azabicyclo[2.2.2]oct-3-yl]-4-chlorobenzamide] | worsened CD-like colitis | highly effective therapeutics for UC-like colitis | prevents DSS-induced UC-like colitis; also recorded: preventing DSS-induced colitis; also recorded: essentially eliminated the inflammation; also recorded: effectively prevent | effectively reverse the disease course; also recorded: essentially eliminated the inflammation | greatly worsens; also recorded: worsens the disease; also recorded: either no therapeutic benefit, even worsening disease activity | no significant effect | slightly more potent | neither agonist (PNU) nor antagonist (MLA) was efficacious; also recorded: no effect at all | neither agonist (PNU) nor antagonist (MLA) was efficacious; also recorded: no effect at all | highly effective in treating colitis | no adverse effect | look normal by appearance | completely reversed the immobility | – | – | – | – | –
CN1CCCC1c1cccnc1 (stereo not drawn) [nicotine] | – | – | prevents the development; also recorded: prevents DSS-induced UC-like colitis; also recorded: effective in preventing UC-like DSS-colitis | – | – | – | – | – | – | – | – | – | – | no significant effect | significant inhibition | insignificant cytokine/chemokine changes | significant production | significant clinical efficacy

From patent US20130197028A1, “nAChRalpha7 Agonists and nAChRalpha7 Antagonists for Treating Ulcerative Colitis (UC) and Crohn's Disease (CD)” (priority 2010, published 2013)
